Source: ChEMBL document CHEMBL1157539, “Thousands of chemical starting points for antimalarial lead identification” (Nature, 2010)

System: Plasmodium falciparum
Assay: GSK_TCMDC: Inhibition of Plasmodium falciparum 3D7 in whole erythrocytes, using parasite LDH activity as an index of growth.
Format: functional, organism-based
Conditions: Plasmodium falciparum, 3D7

SMILES	XC50
O=C(N/C(=C/c1cccc([N+](=O)[O-])c1)c1nc2ccccc2[nH]1)c1cccc(Br)c1	616 nM
O=C(/C=C/c1ccc(Cl)c(Cl)c1)NCCCCCN1CCCN(C(=O)Nc2cccc(Cl)c2)CC1	669 nM
Cc1ccc(S(=O)(=O)N2CCN(C(=O)c3cc(-c4ccccc4)n[nH]3)CC2)cc1	603 nM
COc1cccc(NC(=O)Cn2c(C)c(C(=O)C(F)(F)F)c3ccccc32)c1	827 nM
CC(C)CCN(Cc1cncn1Cc1cccc(Cl)c1)C(=O)c1cncc(-c2ccccc2)c1	762 nM
Cc1nc2nc(N)nc(N)c2c(C)c1Cc1ccc(O)cc1	236 nM
COCC(=O)N(Cc1ccccc1-c1cccc(CNCc2ccc3c(c2)OCO3)c1)C1CCN(Cc2ccccc2)CC1	842 nM
COc1ccc2ncc(F)c(CCN3CC(O)C(CNCc4ccc5c(c4)OCCO5)C3)c2n1 (configuration not stated)	927 nM
O=C(/C=C/c1ccc(Cl)c(Cl)c1)N1CCC(CN2CCC(c3c(-c4ccccc4)[nH]c4ccccc34)CC2)CC1	335 nM
COc1ccc(CCNCCCCCCNCCc2ccc(OC)c(OC)c2Cl)c(Cl)c1OC	904 nM
CCCCC(=O)Nc1cc(=O)[nH]c2nc(-c3ccc(Cl)cc3)nn12	708 nM
Cc1ccc(NC(=O)NC2CCN(CCCCCNC(=O)/C=C/c3ccc(Cl)c(Cl)c3)CC2)cc1	694 nM
O=C(Nc1ccc2[nH]c(-c3ccccc3)nc2c1)c1cc(-c2ccc3c(c2)OCCO3)n[nH]1	769 nM
N=C(N)NN=Cc1ccc2c(ccc3ccccc32)c1	634 nM
O=C(Nc1ccc(OC2CCN(Cc3ccc(F)cc3)C2)c(Cl)c1)c1cccs1 (configuration not stated)	128 nM
c1ccc2oc(-c3cc4ccncc4cc3OC3CCNCC3)cc2c1	1470 nM
CCN(Cc1ccc(-c2ccc(C(F)(F)F)cc2)cc1)C(=O)Cn1c(SCc2cccc(F)c2F)cc(=O)c2cc(CN3CCCCC3)ccc21	801 nM
Cc1nc2nc(N)nc(N)c2c(C)c1Cc1ccc(N)cc1	644 nM
O=C(N[C@@H](Cc1ccccc1)[C@H](O)CNC1CCc2ccccc2C1)c1cc(C2CCCC2)cc(N2CCCC2=O)c1 (some centres not stated)	161 nM
COc1ccc(Nc2nc(NN=Cc3cc(Br)c(O)cc3O)nc(Nc3ccc([N+](=O)[O-])cc3)n2)cc1	896 nM
CCCCNCc1ccc(-c2nc(CN(C(=O)Nc3cc([N+](=O)[O-])ccc3F)C3Cc4ccccc4C3)cs2)cc1	1100 nM
CC(=NNC(S)=NCCc1ccccc1)c1ccccn1	218 nM
O=C(NCCCCN1CCC(c2c[nH]c3ccccc23)CC1)c1ccc(-c2ccc(C(F)(F)F)cc2)cc1	798 nM
COc1cc(CC(C)NCC(O)c2cccc(C(F)(F)F)c2)ccc1OCc1ccccc1 (configuration not stated)	818 nM
Cc1nnsc1C(=O)Nc1ccc(-c2ccc(-c3nc4ccccc4[nH]3)s2)cc1	825 nM

SMILES	XC50
Cc1nc(C)c(CC(=O)Nc2ccc(-c3ccc(-c4nc5cc(C(F)(F)F)ccc5[nH]4)s3)cc2)s1	1030 nM
COc1cccc(NC(=O)Cn2c(C)c(C#N)c3ccccc32)c1	878 nM
CN1CCCN(Cc2ccc(-c3cccc(NC(=O)c4ccc(C#N)cc4)c3)cc2)CC1	744 nM
Cc1cccc2nc(-c3ccc(-c4ccc(CN5CCN(CCN6CCOCC6)CC5)cc4)cc3)[nH]c12	231 nM
O=C(NCCCN1CCOCC1)c1cccc(Nc2nccc(Nc3ccc(Oc4ccccc4)cc3)n2)c1	766 nM
CCCNCc1ccc(-c2ccc(CN(Cc3ccc4c(c3)OCO4)C(=O)[C@H]3CCCO3)cc2)nc1	811 nM
CC(C)C(=O)NC(c1cccs1)c1cc(Cl)c2cccnc2c1O (configuration not stated)	575 nM
O=C(NCCCCN1CCC(c2ccc(Br)cc2)CC1)c1ccc(NC(=O)c2ccc(Cl)cc2)cc1	712 nM
N=C(N)Nc1nc(-c2cccc(NCCCCCCCCON3C(N)=NC(N)=NC34CCCCC4)c2)cs1	226 nM
CN(C)CCN(C)Cc1cccc(-c2cccc(NC(=O)c3cccc(C#N)c3)c2)c1	873 nM
O=C(Nc1ccc(C(F)(F)F)cc1)Nc1ccccc1N1CCNCC1	500 nM
O=C(Nc1cccc(OC2CCN(Cc3ccccc3)CC2)c1)c1ccc(Cl)c(Cl)c1	716 nM
Cc1nc(C)c(-c2ccc(Oc3ccc(OC(F)(F)F)cc3)cc2)c(O)c1I	128 nM
O=C(/C=C/c1ccc(Cl)c(Cl)c1)NC1CCC(CN2CCC(c3nc4ccccc4s3)CC2)CC1 (configuration not stated)	1020 nM
CCCCCC(C)C(C)c1cc(O)c2c(c1)OC(C)(C)C=C2c1cc[n+]([O-])cc1 (configuration not stated)	1190 nM
O=c1[nH]c2ccc(Nc3nccc(NCCc4ccccc4)n3)cc2[nH]1	1210 nM
CS(=O)(=O)c1ccc(CCNCc2ccc(-c3ccc(CNC4CCN(Cc5ccccc5)CC4)cc3)nc2)cc1	249 nM
Cn1cccc1C(=O)Nc1cccc(-c2nn3ccccc3c2-c2ccnc(Nc3ccc4c(c3)OCCO4)n2)c1	1350 nM
CCC(C)CN1CCC(N(C)c2cc(NC(=O)c3cccc(C)c3)ccn2)CC1 (configuration not stated)	937 nM
COc1ccc2nccc([C@@H](O)CN3CCC(NCc4cc5cc(OC(F)(F)F)ccc5[nH]4)CC3)c2c1	127 nM
Cc1ccccc1C1CCN(C2CCC(NC(=O)/C=C/c3cccc(F)c3F)CC2)CC1 (configuration not stated)	1150 nM
Cc1cc(=O)c2cc(Oc3ccc(OC(F)(F)F)cc3)ccc2[nH]1	990 nM
O=C(/C=C/c1ccc(Cl)c(Cl)c1)NCC1CCC(N2CCC(c3c[nH]c4ccccc34)CC2)CC1 (configuration not stated)	172 nM
Cc1ccccc1C(=O)NC(NC(=S)Nc1ccc([N+](=O)[O-])cc1)C(Cl)(Cl)Cl (configuration not stated)	745 nM
CC(Oc1c(C2CCN(CCCCNC(=O)c3ccc(-c4ccc(C#N)cc4)cc3)CC2)ccc2c1CCCC2)C(N)=O (configuration not stated)	678 nM

SMILES	XC50
Cc1cc(Nc2ccc(C)c(Cl)c2)n2nc(C(F)(F)F)nc2n1	15.8 nM
Cc1cc2ccccc2c(CON2C(=N)N=C(N)NC2(C)C)c1C	9.5 nM
COc1ccc(CC(=O)NC(CCCN2CCC3(CC2)OCc2ccccc23)c2ccc(Cl)c(Cl)c2)cc1 (configuration not stated)	1130 nM
NC1=NC(c2ccccc2)(c2ccccc2)C(=O)N1Cc1ccccc1Br	865 nM
COc1ccc(Cc2nc3c(n2C(C)=O)SC(c2ccc(Cl)c(Cl)c2)=NN3C(C)=O)cc1	809 nM
OCC(CO)(CO)NCc1ccc2c3c(cccc13)-c1ccccc1-2	1260 nM
O=C(Nc1ccc(S(=O)(=O)N2CCCCCC2)cc1)c1cc(-c2ccccc2O)n[nH]1	717 nM
CCC1N=C(N)N=C(N)N1OCCCOc1c(Cl)cc(Cl)cc1Cl (configuration not stated)	3.2 nM
COc1ccc(NC(=O)[C@H](Cc2ccccc2)Nc2cc(C)nc(NCCc3ccccc3)n2)cc1	1240 nM
O=c1cc(NCCCNCc2[nH]c3cc(Cl)cc(Cl)c3c2Cn2cccn2)[nH]c2ccccc12	972 nM
C=CCC(C(=O)Nc1ccnc2ccc(OC)cc12)C1CCN(CCCCCCC)CC1 (configuration not stated)	242 nM
OC1CCCN(Cc2ccc(-c3ccc(-c4nc5cc(F)ccc5[nH]4)s3)cc2)C1 (configuration not stated)	851 nM
CC(C)CCNC(=N)c1ccc(OCCCCCOc2ccc(C(=N)NCCC(C)C)cc2)cc1	534 nM
O=C(Nc1ccc2c(c1)CCN2C1CCN(Cc2ccc(C(F)(F)F)cc2F)C1)c1ccco1 (configuration not stated)	510 nM
CCOc1ccccc1CCNC(C)Cc1ccc(C(=O)Nc2ccc(CC(C)NCCc3cccc(Cl)c3)cc2)cc1 (configuration not stated)	539 nM
COc1ccc(-c2ccc(S(=O)(=O)Nc3cc4c(cc3OC(C)C)CCN(C)CC4)cc2)cc1	686 nM
Cc1[nH]n(-c2cccc(Cl)c2)c(=O)c1-c1ccc(Cl)cc1	929 nM
O=C(c1c(-c2[nH]c3ccccc3c2C(=O)C(F)(F)F)[nH]c2ccccc12)C(F)(F)F	746 nM
COc1ccc(NS(=O)(=O)c2ccc(C(=O)Nc3ccc(C(F)(F)F)cc3)cc2)cc1N1CCN(CC2CC2)CC1	832 nM
c1nc2nc3c(c(Nc4ccc5c(c4)CCC5)n2n1)CCC3	917 nM
O=c1cc(NCCCCNCc2ccc(Br)c(Br)c2)[nH]c2ccccc12	856 nM
CC(CO)(CO)NCc1cc2c3ccccc3c(CNC(C)(CO)CO)cc2c2ccccc12	723 nM
Cc1cc(-c2cccc3c(C(=O)N4CCc5cc6nccc(N7CCCN(C)CC7)c6cc54)cccc23)cc(C)n1	437 nM
N#Cc1cccc(NC(=O)Nc2cccc(-c3cccc(-c4nc5cc(F)ccc5[nH]4)c3)c2)c1	225 nM
O=C(Nc1ccc(N2CCCN(Cc3cccc(F)c3)CC2)cc1)c1ccc(F)cc1	837 nM

SMILES	XC50
CCN(CCCN1CCCCC1)c1cc(C)nc(Nc2ccc(C(F)(F)F)cc2)n1	374 nM
Cc1cc(-c2ccc(NC(=O)N3CCc4cc(Br)c(N5CCN(C)CC5)cc43)cc2)ccc1C#N	883 nM
COc1ccc2nc(Nc3nc(-c4ccccn4)cs3)sc2c1	1120 nM
Cc1cc(=NN=Cc2ccccc2Cl)c2cc(F)ccc2[nH]1	750 nM
COc1ccc(CC(=O)Nc2ccc(Nc3nc(C)cc(N4CCCC4)n3)cc2)cc1	1110 nM
COCCNCc1ccc(-c2cccc(CNc3ccc(OC)cc3)c2)cc1	1040 nM
N#Cc1ccc2[nH]cc(C(=O)CCCCCN(Cc3ccccc3)Cc3ccccc3)c2c1	785 nM
CCCCCN1CCCC1CNS(=O)(=O)c1cccc(C(=O)Nc2cccc(C#N)c2)c1 (configuration not stated)	978 nM
CCC[C@@H]([C@@H](CC(C)C)C(=O)N[C@@H](CCCCNC(=O)c1ccccn1)C(=O)Nc1nccs1)N(O)C=O	46.6 nM
COc1ccc(CNc2nccc3ccc(-c4ccc5nccn5c4)cc23)cc1	882 nM
COc1ccc(C(=O)NC2CCN(c3ccnc4cc(Cl)ccc34)C2)cc1 (configuration not stated)	231 nM
Cc1cccc2nc(-c3ccc(-c4cccc(NC(=O)C(C)CN(C)C)c4)s3)[nH]c12 (configuration not stated)	724 nM
O=C(CN1CCN(S(=O)(=O)C=Cc2ccccc2)CC1)Nc1cc(C(F)(F)F)ccc1Cl	776 nM
COc1cc2nccc(Nc3ccc(NC(=O)c4ccc(C)cc4)c(O)c3)c2cc1OC	174 nM
CCCC(C)NC(=O)C(N)Cc1cccc(I)c1 (configuration not stated)	975 nM
Cc1cc(N[C@@H](CC(C)C)C(=O)NC2CCCC2)nc(NCCc2ccc(F)cc2)n1	794 nM
O=C(Nc1ccc2c(c1)CCN2C1CCN(Cc2cccc(C(F)(F)F)c2)C1)c1ccco1 (configuration not stated)	564 nM
O=C(Nc1ccc(Cl)cc1)Nc1ccc(-c2cccc(-c3nc4ccccc4[nH]3)c2)cc1	157 nM
Cc1noc(C)c1C(=O)N1CCc2cc3nccc(N4CCN5CCC[C@H]5C4)c3cc21	874 nM
CCN(CC)Cc1cc(Nc2c3ccc(Cl)cc3nc3cccc(OC)c23)ccc1O	33.4 nM
CCC(C)c1ccc(Nc2nc(C)cc(N(CC)CCCN3CCCCC3)n2)cc1 (configuration not stated)	332 nM
COc1cc(OC)cc(-c2nn(-c3ccc([N+](=O)[O-])cc3Cl)c(=S)n2Cc2ccco2)c1	838 nM
